Legend:
[1] = Hydrolysis of NBPT adduct-containing compositions at varying pH (OPPTS 835.2120), LC-MS monitoring; format: physicochemical; settings: pH=4, 50° C.
Experimental: NBPT adduct-containing compositions were prepared by a method similar to that described in Example 1, with the exception that acetonitrile, rather than N-methylpyrrolidone was used as the solvent and, after <20 wt. % of free NBPT remained (based on UPLC testing), the acetonitrile was evaporated. As such, the NBPT in the “adduct-containing composition” subjected to hydrolysis according to the method of Example 2 is initially partially in adduct form and partially in free form (i.e., the composition includes both NBPT-containing adduct and free NBPT).
The NBPT adduct-containing compositions were hydrolyzed in accordance with OPPTS 835.2120 guidelines (https://www.regulations.gov/document?D=EPA-HQ-OPPT-2009-0152-0009), which are incorporated herein by reference. Specifically, samples comprising the NBPT adducts were subjected to various pH conditions (pH=4, pH=7, and pH=9) to evaluate the hydrolysis profiles at these varying pH values at 50° C. for 5 days. Hydrolysis of the NBPT adduct-containing compositions (by evaluating total NBPT adduct concentration as well as free NBPT concentration (i.e., NBPT in non-adduct form)) was monitored at hourly-to-daily intervals by liquid chromatography-mass spectroscopy (LC-MS), with secondary detection via ultraviolet (UV) detection at 200 nm. […]

[2] = NBPT hydrolysis over time in acetonitrile; format: physicochemical; settings: in acetonitrile (no hydrolysis conditions)
Source text: FIGS. 4A and 4B present data on a study of NBPT hydrolysis over time in acetonitrile. As shown, little change is observed over the course of the study.

CCCCNP(N)(N)=S [free NBPT, N-(n-butyl) thiophosphoric triamide]
amount of free NBPT in the composition ([1]; day 3): minimal
amount of free NBPT in the composition ([1]; day 4): completely gone
change of overall amount over the course of the study [2]: not actively degraded

Reference: patent US20190382320A1, “ENHANCED STABILITY OF UREASE INHIBITOR-CONTAINING COMPOSITIONS” (Koch Agronomic Services, LLC, priority 2017, published 2019)
